According to patent US20050192299A1, “Method of treating or preventing hepatitis B virus” (priority 1992, published 2005):
Several values for one entry are separate records, joined by “and”; a condition that tells them apart may be missing. Equal values may be shown once. Read-outs that look alike come from different tables or passages of the source.

Assays:
mitochondria DNA = experiment: cells; format: cell-based; settings: for IC50: Homo sapiens, CCRF-CEM, CEM cells
Procedure: The CEM cells (5×10^4) cells were collected and freeze-thawed three times. The cell lysate was incubated with RNase (10 μg/ml) at 37° C. for 30 minutes. The sample was treated with proteinase K (100 μg/ml) at 55° C. for 1 hour. A 0.8 volume of supersaturated Nal (2.5 gNaI in 1 ml hot water) was added to the sample and heated at 90° C. for 10 minutes. The DNA was immobilized on nitrocellulose paper by using a slot blot apparatus (Schleicher & Schuell, Keene, NH). The mtDNA on the nitrocellulose paper was detected with a mtDNA specific probe as described previously (Chen, C. H., Cheng, Y. C., “relayed Cytotoxicity and Selective Loss of Mitochondria DNA in Cells Treated with the Anti-Human Immunodeficiency Virus Compound 2′,3′-Dideoxycytidine,” J. Biol. Chem. 264: 11934-11937, 1989).
(§1) Mitochondria DNA content was measured by slot blot hybridization analysis. […] Thus, D4C would be expected to have a mitochondria effect before the anti-HBV effect was achieved as the same phenomenon observed in treatment with ddC.

HBV [1] = experiment: Northern blot analysis of HBV-specific RNA transcripts in 2.2.15 cells; format: cell-based, hepatitis B virus; settings: 2.0 μM, 12 days
Procedure: Total cellular RNA was isolated according to Chomczyndki et al. (Chomczynsk, P., and Sacchi, N., “Single Step Method for RNA Isolation by Acid Guanidinium Thiocyanate-Phenol-Chloroform Extraction,” Analytical Biochemistry, 162: 156-159, 1987). The RNA (20 μg per lane) was electrophoresed through 1% agarose gel containing 1.1×formaldehyde and transferred to Hybond-N membrane. The immobilized RNA was hybridized with ^32P-labeled HBV DNA probe and the membrane was autoradiographed as described above.
Northern blot analysis was performed to analyze HBV RNA transcripts. Three major transcripts of approximately 3.5, 2.5, and 2.1 Kb were detected in the total cellular RNA extract.

HBV [2] = test system: HBV
HBV [3] = settings: 12 days; for chromosomally integrated HBV DNA (amount and restriction enzyme pattern): 2.2.15 cells
Procedure: Drug-treated cells were lysed with a buffer containing 10 mM Tris pH 7.5, 5 mM EDTA, 150 mM NaCl and 1% SDS. The cell lysate was digested with 100 μg/ml proteinase K at 55° C. for at least 2 hours and deproteinized by extraction with phenol. Nucleic acids were precipitated with 2 volumes of ethanol. The pellet of nucleic acid was redissolved in 10 mM Tris pH 8.0, 1 mM EDTA followed by 100 μg per ml RNase treatment at 37° C. for 1 hour. Concentrated ammonium acetate was added to the aqueous phase to yield a final 0.4 M ammonium acetate solution. The nucleic acids were precipitated with ethanol.
The chromosomally integrated HBV DNA genome and the episomal DNA can be separated in the gel and can be differentially quantified.

[4] = test system: CEM (T lymphoblastoid cells) cells; experiment: Cytotoxicity in CEM cells (cell number at day 4); format: cell-based; settings: 4 days
Procedure: CEM (T lymphoblastoid cells) cells were inoculated in 5 ml RPMI 1640 supplemented with 5% fetal bovine serum at a concentration of 2×10^3 cells per ml. The cells were incubated with different concentrations of compounds for 4 days. At day 4, the cell number was determined by a coulter counter or a hemocytometer.
as §1

human cytidine deaminase = human cytidine deaminase (Homo sapiens, UniProt P32320); experiment: Deamination by deoxycytidine deaminase (HPLC analysis); format: biochemical; settings: 37° C., 16 hours
Procedure: After each time point, 100 μl of acetonitrile were added to the reaction mixture and agitated. The precipitated proteins were removed by centrifugation, and the supernatent was lyophilized to dryness. The samples were reconstituted with 200 μl of HPLC mobile phase buffer and analyzed on an Alltech RP-18 column. […] The mobile phase was 10% acetonitrile/water unless specified otherwise, and the flow rate was 0.8 ml/minutes.

CEM cells = experiment: CEM growth with dialyzed FBS (cell number on days 2, 4 and 6); format: cell-based; settings: Homo sapiens, CCRF-CEM, RPMI 1640 + 5% dialyzed FBS, cell number versus days in culture, read-out: ID50 (CEM cell growth, toxicity)
Procedure: Six wells were seeded as controls. These wells were untreated. […] The cells were pipetted to break clumps, and then 1 ml was removed from each well and diluted into 9 ml saline. The saline+cells were pipetted well to break clumps and counted via a coutler counter. To determine ID50, cell number was plotted versus days in culture.

[5] = read-out: MTID30 (concentration which caused a 50% reduction in mitochondria DNA content)

Chain of human cytidine deaminase (P32320 whole entry): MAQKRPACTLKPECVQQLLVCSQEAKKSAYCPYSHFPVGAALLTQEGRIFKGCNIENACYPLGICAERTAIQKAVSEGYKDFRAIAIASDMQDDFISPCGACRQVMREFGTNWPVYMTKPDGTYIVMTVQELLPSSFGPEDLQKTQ

What does the source list for `Nc1nc(=O)n([C@H]2CS[C@@H](CO)O2)cc1F` (racemic) [5-fluoro-3′-thia-2′,3′-dideoxycytidine, (±)5-fluoro-3′-thia-2′,3′-dideoxycytidine]?
effect on mitochondria DNA synthesis (mitochondria DNA): no effect on mitochondria DNA synthesis was observed; IC50 (mitochondria DNA; [5]): > 200 µM; HBV specific RNA transcripts (3.5, 2.5, 2.1 Kb) (HBV [1]): not affected at all; IC50 (HBV [2]): 0.1 µM; selectivity ratio (HBV [2]): > 2000; chromosomally integrated HBV DNA (amount and restriction enzyme pattern) (HBV [3]): unaltered; chromosomally integrated HBV DNA (amount and restriction enzyme pattern) (HBV [3]; listed as 5-fluoro-3′-thia-2′,3-dideoxycytidine): not found to affect the integrated HBV DNAs; episomal HBV DNA in 2.2.15 cells (HBV [3]; different concentrations): decreased in a dose dependent manner

Which IC50 (HBV [2]) does the source give for `Nc1ccn(C2COC(CO)O2)c(=O)n1` (single isomer, unassigned; (-)) [(−) OddC, (−)-L-B-dioxolane-cytosine] here?
Its IC50 is less than 0.001 µM.

Which results are given for `Nc1ccn([C@H]2C[C@H](F)[C@@H](CO)O2)c(=O)n1` [3′-FddC, 3′-fluoro-2′,3′-dideoxycytidine]?
ED50 (concentration causing 50% reduction in cell number) [4]: 45 µM; IC50 (mitochondria DNA; [5]): 0.11 µM; IC50 (HBV [2]): 1.6 µM; selectivity ratio (HBV [2]): 28.1; inhibition (HBV [2]; 2 µM): ~50%

Which results are given for `Nc1ccn([C@H]2CS[C@@H](CO)O2)c(=O)n1` [(+)3′-thia-2′,3′-dideoxycytidine]?
deamination by deoxycytidine deaminase (human cytidine deaminase): ~100%; IC50 (CEM cells): 1.26 µM; inhibition (HBV [2]): ~50%

How did the “deamination by deoxycytidine deaminase” value (human cytidine deaminase) turn out when `Nc1ccn([C@@H]2CS[C@H](CO)O2)c(=O)n1` [(−)3′-thia-2′,3′-dideoxycytidine] was run?
Its value is “no sign of deamination at all”.

Which results are given for `Nc1ccn([C@H]2C=C[C@@H](CO)O2)c(=O)n1` [D4C, 2′,3′-didehydro-2′,3′-dideoxycytidine]?
ED50 (concentration causing 50% reduction in cell number) [4]: 22 µM; IC50 (mitochondria DNA; [5]): 2 µM; IC50 (mitochondria DNA; read-out: MtID50): 2 µM; IC50 (HBV [2]): 2.4 µM; selectivity ratio (HBV [2]): 9.2

Which results are given for `Nc1ccn([C@H]2CC[C@@H](CO)O2)c(=O)n1` [ddC, 2′,3′ dideoxycytidine]?
IC50 (mitochondria DNA; [5]): 0.022 µM; IC50 (mitochondria DNA; read-out: MtID50): 0.022 µM; IC50 (HBV [2]): 3.8 µM and 3.6 µM; selectivity ratio (HBV [2]): 2.6

How did the “deamination by deoxycytidine deaminase” value (human cytidine deaminase) turn out when `Nc1ccn([C@@H]2CS[C@@H](CO)O2)c(=O)n1` [α-3′-Thia-2′,3′-dideoxycytidine] was run?
The value was “no deamination occurred”.
